Measured values from PMC3875168 (Journal of medicinal chemistry, 2013).
One block for each compound: values may come before it.

What was measured:
[1] = biological target: LAR (Homo sapiens, UniProt P10586); assay: Selectivity assay, pNPP substrate; format: biochemical; conditions: relative to STEP Ki
[2] = biological target: T1, CD45 (Homo sapiens, UniProt P08575); assay: Selectivity assay, pNPP substrate; format: biochemical; conditions: relative to STEP Ki
T1 sequence (P08575 26-1306): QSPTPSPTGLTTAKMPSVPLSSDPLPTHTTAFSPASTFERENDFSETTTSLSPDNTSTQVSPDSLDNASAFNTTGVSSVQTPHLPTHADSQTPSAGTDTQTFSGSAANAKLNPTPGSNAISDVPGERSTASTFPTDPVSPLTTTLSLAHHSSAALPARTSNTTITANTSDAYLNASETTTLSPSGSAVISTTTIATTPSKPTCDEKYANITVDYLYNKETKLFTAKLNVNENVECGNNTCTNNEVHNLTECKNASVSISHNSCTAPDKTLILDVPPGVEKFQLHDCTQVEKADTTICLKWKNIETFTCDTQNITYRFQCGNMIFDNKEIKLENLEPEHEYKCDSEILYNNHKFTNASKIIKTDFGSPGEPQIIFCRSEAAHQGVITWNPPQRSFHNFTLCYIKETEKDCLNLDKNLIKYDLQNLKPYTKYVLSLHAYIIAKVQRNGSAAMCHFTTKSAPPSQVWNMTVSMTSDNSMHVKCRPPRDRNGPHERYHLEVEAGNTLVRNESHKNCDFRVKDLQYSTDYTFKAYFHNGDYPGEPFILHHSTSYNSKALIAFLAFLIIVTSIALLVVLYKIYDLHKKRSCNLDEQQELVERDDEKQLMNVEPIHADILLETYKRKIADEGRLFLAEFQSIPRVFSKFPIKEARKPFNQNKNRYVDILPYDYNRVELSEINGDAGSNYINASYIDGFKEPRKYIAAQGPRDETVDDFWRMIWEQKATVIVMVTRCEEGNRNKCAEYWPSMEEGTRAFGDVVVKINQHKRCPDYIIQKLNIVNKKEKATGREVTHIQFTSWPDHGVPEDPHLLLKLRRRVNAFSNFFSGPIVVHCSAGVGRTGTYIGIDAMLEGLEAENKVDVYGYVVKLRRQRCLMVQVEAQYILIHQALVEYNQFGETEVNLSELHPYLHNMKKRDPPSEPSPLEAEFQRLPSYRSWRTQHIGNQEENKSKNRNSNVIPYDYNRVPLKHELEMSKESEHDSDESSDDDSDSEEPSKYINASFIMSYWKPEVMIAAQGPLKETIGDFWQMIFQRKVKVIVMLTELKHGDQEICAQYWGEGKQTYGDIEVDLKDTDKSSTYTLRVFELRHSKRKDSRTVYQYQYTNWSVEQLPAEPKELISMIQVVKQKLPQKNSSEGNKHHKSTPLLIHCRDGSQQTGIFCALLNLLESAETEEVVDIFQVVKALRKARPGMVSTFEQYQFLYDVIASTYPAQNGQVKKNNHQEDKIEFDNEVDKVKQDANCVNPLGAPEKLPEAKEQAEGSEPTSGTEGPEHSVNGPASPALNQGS

[3] = Solubility of the inhibitor; format: physicochemical; conditions: hydroxyl group at the benzylic position, compared with 12p
[4] = biological target: T2, STEP (Rattus norvegicus, UniProt P35234); assay: STEP inhibition in neuronal cultures, Western blotting of phospho-substrates; format: cell-based; conditions: rat cortical neurons, 0.1, 1 or 10 µM for 1 h
T2 sequence (P35234 53-369 limits assumed): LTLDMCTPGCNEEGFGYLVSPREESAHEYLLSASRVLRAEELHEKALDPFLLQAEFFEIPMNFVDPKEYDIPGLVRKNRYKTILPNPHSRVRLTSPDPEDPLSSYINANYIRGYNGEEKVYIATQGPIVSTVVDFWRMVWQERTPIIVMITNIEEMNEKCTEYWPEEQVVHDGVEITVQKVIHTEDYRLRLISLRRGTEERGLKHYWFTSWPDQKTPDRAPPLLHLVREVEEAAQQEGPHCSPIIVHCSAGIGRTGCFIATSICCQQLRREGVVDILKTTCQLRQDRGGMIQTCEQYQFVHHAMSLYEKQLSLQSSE

[5] = BBB PAMPA; format: in vitro ADME; conditions: PAMPA model system; data in SI
[6] = biological target: T3, MKP5 (Homo sapiens, UniProt Q9Y6W6); assay: Selectivity assay, DiFMUP substrate; format: biochemical; conditions: relative to STEP Ki
T3 sequence (Q9Y6W6 1-482): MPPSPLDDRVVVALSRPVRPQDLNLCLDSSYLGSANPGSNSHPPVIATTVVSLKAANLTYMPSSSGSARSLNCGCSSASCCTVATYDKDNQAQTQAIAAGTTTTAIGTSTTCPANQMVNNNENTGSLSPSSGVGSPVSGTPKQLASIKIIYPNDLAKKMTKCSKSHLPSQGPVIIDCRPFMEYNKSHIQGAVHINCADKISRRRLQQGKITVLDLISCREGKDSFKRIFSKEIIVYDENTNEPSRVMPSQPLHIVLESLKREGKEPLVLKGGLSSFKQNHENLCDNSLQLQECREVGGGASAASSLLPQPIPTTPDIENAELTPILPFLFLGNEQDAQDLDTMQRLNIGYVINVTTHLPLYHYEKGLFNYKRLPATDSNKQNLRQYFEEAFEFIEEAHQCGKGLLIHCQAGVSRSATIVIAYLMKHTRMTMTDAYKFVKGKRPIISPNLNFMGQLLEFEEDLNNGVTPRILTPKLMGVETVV

Chain of LAR (P10586 30-1907): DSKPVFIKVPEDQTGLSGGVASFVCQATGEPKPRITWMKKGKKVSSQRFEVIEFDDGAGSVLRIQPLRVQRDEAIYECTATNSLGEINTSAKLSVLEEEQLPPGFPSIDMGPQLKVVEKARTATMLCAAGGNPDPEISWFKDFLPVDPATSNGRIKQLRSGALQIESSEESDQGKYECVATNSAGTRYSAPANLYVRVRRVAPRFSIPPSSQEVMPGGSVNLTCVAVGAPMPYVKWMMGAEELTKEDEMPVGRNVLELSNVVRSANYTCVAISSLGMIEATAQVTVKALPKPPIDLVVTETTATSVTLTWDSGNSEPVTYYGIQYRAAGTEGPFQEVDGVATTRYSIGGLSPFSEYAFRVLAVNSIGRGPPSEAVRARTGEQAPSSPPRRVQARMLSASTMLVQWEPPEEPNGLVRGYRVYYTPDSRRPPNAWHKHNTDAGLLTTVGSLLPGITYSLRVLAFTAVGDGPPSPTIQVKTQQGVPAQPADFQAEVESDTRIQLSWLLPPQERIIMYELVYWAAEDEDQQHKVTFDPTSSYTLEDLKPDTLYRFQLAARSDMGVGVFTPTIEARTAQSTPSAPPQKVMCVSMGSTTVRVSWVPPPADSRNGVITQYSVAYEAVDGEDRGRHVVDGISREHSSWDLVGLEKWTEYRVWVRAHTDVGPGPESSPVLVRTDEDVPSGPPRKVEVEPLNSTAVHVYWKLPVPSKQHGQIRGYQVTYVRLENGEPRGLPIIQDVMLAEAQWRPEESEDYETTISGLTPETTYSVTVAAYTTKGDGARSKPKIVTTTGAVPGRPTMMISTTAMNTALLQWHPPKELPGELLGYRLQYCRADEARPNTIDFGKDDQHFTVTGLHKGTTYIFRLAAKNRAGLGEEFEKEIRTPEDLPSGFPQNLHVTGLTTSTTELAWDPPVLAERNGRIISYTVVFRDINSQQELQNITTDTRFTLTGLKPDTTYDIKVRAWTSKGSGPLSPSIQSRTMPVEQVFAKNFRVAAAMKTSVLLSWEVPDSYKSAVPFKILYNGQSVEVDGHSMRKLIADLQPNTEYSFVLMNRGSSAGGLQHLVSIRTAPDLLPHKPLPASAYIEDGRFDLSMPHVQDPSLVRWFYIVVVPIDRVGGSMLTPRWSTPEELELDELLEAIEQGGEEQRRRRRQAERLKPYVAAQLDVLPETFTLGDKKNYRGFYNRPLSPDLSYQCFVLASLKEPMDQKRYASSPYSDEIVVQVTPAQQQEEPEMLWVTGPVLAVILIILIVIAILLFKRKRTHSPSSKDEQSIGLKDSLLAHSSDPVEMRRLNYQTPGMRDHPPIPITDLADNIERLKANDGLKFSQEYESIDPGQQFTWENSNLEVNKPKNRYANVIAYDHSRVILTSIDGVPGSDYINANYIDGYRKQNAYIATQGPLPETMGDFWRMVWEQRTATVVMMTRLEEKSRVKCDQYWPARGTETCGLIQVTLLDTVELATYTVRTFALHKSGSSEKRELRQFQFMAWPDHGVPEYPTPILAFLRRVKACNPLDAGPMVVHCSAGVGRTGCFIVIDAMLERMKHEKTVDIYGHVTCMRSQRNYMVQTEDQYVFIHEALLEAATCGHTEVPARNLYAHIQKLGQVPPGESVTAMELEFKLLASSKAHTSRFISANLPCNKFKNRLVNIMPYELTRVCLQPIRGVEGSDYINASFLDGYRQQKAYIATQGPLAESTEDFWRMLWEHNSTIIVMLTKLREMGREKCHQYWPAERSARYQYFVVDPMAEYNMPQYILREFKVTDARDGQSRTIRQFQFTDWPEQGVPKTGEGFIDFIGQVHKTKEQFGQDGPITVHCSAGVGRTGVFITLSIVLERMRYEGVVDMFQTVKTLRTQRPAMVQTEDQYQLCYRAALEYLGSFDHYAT

selectivity LAR [1]: >45
selectivity CD45 [2]: >25
Structure (SMILES): O=P(O)(O)C(F)(F)c1cccc(-c2cccc(C3CCCCC3)c2O)c1 [11m, ((3'-Cyclohexyl-2'-hydroxy-[1,1'-biphenyl]-3-yl)difluoromethyl)phosphonic Acid]

solubility of the inhibitor [3]: increased the solubility
Structure (SMILES): O=P(O)(O)C(F)(F)c1ccc(-c2cccc(C(O)c3ccc(Cl)c(Cl)c3)c2)cc1 (stereo not shown) [12q, ((3'-((3,4-Dichlorophenyl)(hydroxy)methyl)-[1,1'-biphenyl]-4-yl)difluoromethyl)phosphonic Acid]

Structure (SMILES): O=P(O)(O)[C@H](O)c1ccc(-c2cccc([C@@H](O)c3ccc(Cl)c(Cl)c3)c2)cc1 [12s, ((S)-(3'-((R)-(3,4-dichlorophenyl)(hydroxy)methyl)-[1,1'-biphenyl]-4-yl)(hydroxy)methyl)phosphonic Acid]
phosphorylation levels of STEP substrates GluN2B, Pyk2 and ERK1/2 [4]: Clear increases in the phosphorylation levels
ability to passively permeate the blood-brain barrier [5]: did not possess the ability to passively cross the BBB

Structure (SMILES): O=P(O)(O)[C@H](O)c1ccc(-c2cccc([C@H](O)c3ccc(Cl)c(Cl)c3)c2)cc1 [12t, ((S)-(3'-((S)-(3,4-dichlorophenyl)(hydroxy)methyl)-[1,1'-biphenyl]-4-yl)(hydroxy)methyl)phosphonic Acid]
phosphorylation levels of STEP substrates GluN2B, Pyk2 and ERK1/2 [4]: more modest effects
selectivity MKP5 [6]: >65
